From US8080582B2, “Derivatives of 8-epiblechnic acid and their effects on down-regulation of endothelin (ETA) receptor mRNA” (ScinoPharm Taiwan Ltd., priority 2008, dated 2011)
“Also recorded” adds a separate entry of the source. Read-outs that look alike come from different tables or passages of the source.

Legend:
Assay type in all cases: cell-based
[1] = system: ETBR protein expression; assay: Western blot of ETBR protein expression in vascular smooth muscle cells; details: 100 μg/ml, 48 hrs
Procedure: The smooth muscle cells (5×10^5 cells in 35 mm culture dish) were treated with Sal-B and its analogs for 48 hrs, and then a proteinase inhibitor solution was used to collect proteins from the cells.
The protein concentrations in the samples were calculated by using BSA as the standards to construct a standard curve. After mixing Bradford Protein assay reagent evenly with the standards or the samples, the OD595 absorption values were measured. Standard curve was constructed by plotting OD595 values of the BSA standards versus their concentrations. The protein concentrations of the samples were calculated from the standard curve.
Bio-Rad's Mini-Protean III Dual Slab Cell instrument was used. A 12% polyacrylamide separating gel solution was prepared and placed into a electrophoretic gel preparation device. Deionized water was added to flat the surface of the separating gel solution, and the water was poured off after the gel had coagulated. A stacking gel solution containing 5% polyacrylamide was added and then a comb was inserted. The comb was removed after the stacking gel had coagulated, and the gel was placed into an upright electrophoresis tank. A suitable amount of running buffer was added, and then the protein samples were loaded into the wells of stacking gel layer. […]

[2] = system: normal mammary gland cell line (A1N4); assay: Cytotoxicity test on normal mammary gland cells
Procedure: (§1) The cells (1×10^5 cells/well in 24-well plates) were cultured for 24 hrs. Different concentrations of Sal-B and its analogs (0, 50, 100, 150, 200, 250 μg/ml) were added to treat the cells. After treating for 48 hrs, 100 μl MTT solution was added to each well, and the plate was placed in an incubator for 1-4 hrs. After adding 400 μl DMSO to treat the cells for 30 min., 200 μl samples were collected and placed in a 96-well plate to conduct the absorption measurement at 550 nm.

[3] = system: ETAR gene expression in PC-3 cells; assay: PCR of ETAR gene expression in PC-3 cancer cells; details: 48 hrs
Procedure: (§2) PC-3 and MCF-7 cancer cells were treated with Sal-B and EBA for 48 hrs, and the identical concentrations of cellular whole RNA were sampled for the synthesis of cDNA by using reverse transcriptase. The PCR method was then used to compare the amounts of endothelin receptor mRNA expression. While the PC-3 cells were treated with either Sal-B or EBA, its ETAR gene expression was not reduced.

[4] = system: prostate cancer cells (PC-3); assay: MTT cell viability, prostate cancer cells; details: for Cell viability at higher concentrations: PC-3, 0.3 mM (or higher), 48 hrs, MTT
Procedure: as §1
Cancer cells were treated with Sal-B and EBA at concentrations of 0, 0.1, 0.2, 0.3, 0.4, 0.5 mM. After treating for 48 hrs, MTT was added, and then allowed to react for 3 hrs at 37° C. After that, DMSO was added and allowed to react for 30 min., the OD570 absorption values were measured. Cell viability was above 80% when nasopharyngeal cancer cells (Hone-1) were treated with […] Sal-B and EBA. […] But the cell viability remained above 70% for treating with 0.1 mM and 0.2 mM EBA. Similar results were obtained when prostate cancer cells (PC-3) were treated with the drugs: Cell viability was above 80% for treating PC-3 cells with 0.2 mM Sal-B or EBA.
MTT testing was employed to observe the viability of cancer cells after treating with Sal-B and the six synthetic analogs.

[5] = system: PC-3 cancer cells; assay: Flow cytometry cell cycle analysis (sub-G1, apoptosis) of PC-3 cells; details: PC-3, 0.4 mM, 48 hrs, PI flow cytometry; control around 1.18%
Procedure: After suspending cells, the precooled 70% ethanol was used for fixing the cells. After centrifuging the mixture for 10 min. at 3,000 rpm, supernatant liquid was removed. Propidium iodide (PI) buffer (0.1% Triton X-100, 0.2 μg/ml RNase A, 40 μg/ml PI) was added, and then the solution was kept still at 37° C. for 30 min. After that, the cell cycle analysis was conducted by flow cytometry.
Flow cytometry was used to determine whether Sal-B and its analogs induced apoptosis in cancer cells. After treating PC-3 cancer cells with 0.4 mM Sal-B and EBA, and 0.01 mM compounds B and A for 48 hrs, the cells were collected and allowed to react with PI buffer for 30 min. Flow cytometry was then employed to measure the cell cycle. Approximately 5.16% of PC-3 cancer cells were at sub-G1 phase after treating with Sal-B, roughly 5.27% were at sub-G1 phase after treating with compound B, and roughly 8.54% were at sub-G1 phase after treating with compound A. However, for the control, only around 1.18% of the cells were at sub-G1 phase. Therefore, Sal-B and its analogs (compounds B and A) thus caused a significant increase in the percentage of cells at sub-G1 phase.

[6] = system: ETAR gene expression in MCF-7 cells; assay: PCR of ETAR gene expression in MCF-7 cancer cells; details: 48 hrs
Procedure: as §2

O=C(/C=C/c1ccc(O)c2c1[C@H](C(=O)O[C@H](Cc1ccc(O)c(O)c1)C(=O)[O-])[C@@H](c1ccc(O)c(O)c1)O2)O[C@H](Cc1ccc(O)c(O)c1)C(=O)[O-].[Mg+2] [Sal-B, magnesium lithospermate B]
ETBR protein expression compared with control [1]: no effect on ETBR protein expression
Cytotoxicity to normal cells ([2]; A1N4 normal mammary gland cells, FIG. 2): no significant difference was observed on the cytotoxicity results; also recorded: not highly toxic to normal cells
ETAR gene expression [3]: not reduced
Cell viability at higher concentrations [4]: the cell viability was reduced
Viability of PC-3 cells as the concentration is increased ([4]; PC-3, MTT, increasing concentration, FIG. 1): reduced as the concentration of Sal-B was increased
PC-3 cancer cells at sub-G1 phase [5]: Approximately 5.16%
ETAR gene (mRNA) expression [6]: can reduce the expression of ETAR mRNA

epiblechnic acid [EBA]
ETBR protein expression compared with control [1]: no effect on ETBR protein expression
Cytotoxicity to normal cells [2]: no significant difference was observed on the cytotoxicity results
ETAR gene expression [3]: not reduced
Cell viability at higher concentrations [4]: did not significantly reduce the cell viability
PC-3 cancer cells at sub-G1 phase [5]: approximately 1.73%
ETAR gene (mRNA) expression [6]: reduced significantly
